23 compounds from patent US10519154B2, “7-substituted 1-pyridyl-naphthyridine-3-carboxylic acid amides and use thereof” (Bayer Pharma Aktiengesellschaft, priority 2016, dated 2019) can be followed below.

Usually EC50 stands for the concentration at which the effect is half-maximal. The low end stands for a more potent agent, the high end for a less potent agent.

This experiment concerns the target T1, human M2 receptor (Homo sapiens, UniProt P08172).
T1 sequence (P08172 1-466): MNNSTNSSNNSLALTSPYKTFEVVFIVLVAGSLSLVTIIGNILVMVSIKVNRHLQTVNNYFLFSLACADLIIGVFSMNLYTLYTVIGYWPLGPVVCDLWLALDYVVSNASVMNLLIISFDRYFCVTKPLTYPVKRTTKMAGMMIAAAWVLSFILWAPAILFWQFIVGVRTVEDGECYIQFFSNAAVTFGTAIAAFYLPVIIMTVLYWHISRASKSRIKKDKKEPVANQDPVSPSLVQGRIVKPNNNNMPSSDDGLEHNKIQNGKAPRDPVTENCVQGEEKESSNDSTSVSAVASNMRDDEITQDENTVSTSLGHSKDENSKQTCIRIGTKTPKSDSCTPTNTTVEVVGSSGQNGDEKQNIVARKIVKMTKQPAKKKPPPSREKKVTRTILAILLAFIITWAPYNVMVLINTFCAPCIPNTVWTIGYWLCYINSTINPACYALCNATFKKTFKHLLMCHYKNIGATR
Nature of the experiment: Functional M2-GIRK1/4 activation test: allosteric potency (EC50) and efficiency. The settings on record: for EC50: Receptor activity EC50, CHO-DUKX-M2-GIRK cells, acetylcholine at EC20, in some cases mean of two or more determinations; for Emax: read-out: Efficiency, boosting of the acetylcholine effect at EC20 acetylcholine concentration; for Emax / Efficiency: CHO-DUKX-M2-GIRK cells; for Efficiency: boosting of the acetylcholine effect at EC20 acetylcholine concentration.

Take `O=C(NC12CC(C1)C2)c1cn(-c2ncc(F)cc2F)c2nc(N3C[C@@H](O)CC3=O)ccc2c1=O` [Example 101, N-(Bicyclo[1.1.1]pent-1-yl)-1-(3,5-difluoropyridin-2-yl)-7-[(4S)-4-hydroxy-2-oxopyrrolidin-1-yl]-4-oxo-1,4-dihydro-1,8-naphthyridine-3-carboxamide]: a half-maximal response (EC50) required 0.585 µM and the Emax is 78.5%.

In the case of `O=C(N[C@@H](C1CC1)C(F)(F)F)c1cn(-c2ncc(F)cc2F)c2nc(N3CCCN(CCO)C3=O)ccc2c1=O` [Example 123, N-[(1S)-1-Cyclopropyl-2,2,2-trifluoroethyl]-1-(3,5-difluoropyridin-2-yl)-7-[3-(2-hydroxyethyl)-2-oxotetrahydropyrimidin-1(2H)-yl]-4-oxo-1,4-dihydro-1,8-naphthyridine-3-carboxamide], a half-maximal response (EC50) required 0.24 µM and the Emax came to 98%.

In the case of `CC(C)C[C@H](NC(=O)c1cn(-c2ncc(F)cc2F)c2nc(N3C[C@@H](O)CC3=O)ccc2c1=O)C(F)(F)F` [Example 75, 1-(3,5-Difluoropyridin-2-yl)-7-[(4S)-4-hydroxy-2-oxopyrrolidin-1-yl]-4-oxo-N-[(2S)-1,1,1-trifluoro-4-methylpentan-2-yl]-1,4-dihydro-1,8-naphthyridine-3-carboxamide], the midpoint of the response, the EC50, lay at 0.019 µM and the Emax worked out at 100%.

As to `CC(NC(=O)c1cn(-c2ncc(F)cc2F)c2nc(N3C[C@@H](O)CC3=O)ccc2c1=O)C(F)(F)C(F)(F)F` (single isomer, unassigned) [Example 77], a half-maximal response (EC50) required 0.26 µM and the Emax amounted to 100%.

`CC1(C)C(=O)N(c2ccc3c(=O)c(C(=O)N[C@H](C4CC4)C(F)(F)F)cn(-c4ncc(F)cc4F)c3n2)C2(CC2)C1O` (stereo partly shown) [Example 32]: a half-maximal response (EC50) required 0.4 µM and the Emax stood at 89.5%.

Regarding `O=C(N[C@H](C1CC1)C(F)(F)F)c1cn(-c2ncccc2F)c2nc(N3CC4CC4(O)C3)ccc2c1=O` (mixture of isomers) [Example 135, N-[(1R)-1-Cyclopropyl-2,2,2-trifluoroethyl]-1-(3-fluoropyridin-2-yl)-7-[(1S)-1-hydroxy-3-azabicyclo[3.1.0]hex-3-yl]-4-oxo-1,4-dihydro-1,8-naphthyridine-3-carboxamide], the EC50 was found to be 0.097 µM and the Emax was found to be 100%.

Consider `O=C(N[C@H](C1CC1)C(F)(F)F)c1cn(-c2ncccc2F)c2nc(N3CC4C[C@@]4(O)C3)ccc2c1=O` (single isomer, unassigned) [Example 137], for which the midpoint of the response, the EC50, lay at 0.11 µM and the Efficiency stood at 99.00%.

`CC[C@H](NC(=O)c1cn(-c2ncc(F)cc2F)c2nc(N3C(=O)C4(CC4)C(O)C3C)ccc2c1=O)C(F)(F)F` (stereo partly drawn) [Example 113, 1-(3,5-Difluoropyridin-2-yl)-7-[7-hydroxy-6-methyl-4-oxo-5-azaspiro[2.4]hept-5-yl]-4-oxo-N-[(2S)-1,1,1-trifluorobutan-2-yl]-1,4-dihydro-1,8-naphthyridine-3-carboxamide]: the midpoint of the response, the EC50, lay at 0.145 µM and the Emax was determined as 97%.

As for `CC(NC(=O)c1cn(-c2ncc(F)cc2F)c2nc(N3C[C@@H](O)[C@H](O)C3)ccc2c1=O)(C1CC1)C(F)(F)F` (stereo partly shown) [Example 153], the EC50 amounted to 0.2 µM and the Emax was 100%.

As to `CC(C)C[C@@H](NC(=O)c1cn(-c2ncc(F)cc2F)c2nc(N3CCNC3=O)ccc2c1=O)C(F)(F)F` [Example 156, 1-(3,5-Difluoropyridin-2-yl)-4-oxo-7-(2-oxoimidazolidin-1-yl)-N-[-(2R)-1,1,1-trifluoro-4-methylpentan-2-yl]-1,4-dihydro-1,8-naphthyridine-3-carboxamide], the EC50 came to 0.036 µM and the Emax came out at 100%.

As to `C[C@@H]1CN(c2ccc3c(=O)c(C(=O)N[C@@H](C4CC4)C(F)(F)F)cn(-c4ncc(F)cc4F)c3n2)C(=O)N1` [Example 142, N-[(1S)-1-cyclopropyl-2,2,2-trifluoroethyl]-1-(3,5-difluoropyridin-2-yl)-7-[(4R)-4-methyl-2-oxoimidazolidin-1-yl]-4-oxo-1,4-dihydro-1,8-naphthyridine-3-carboxamide], the EC50 turned out to be 0.047 µM and the Emax amounted to 94.5%.

As to `CC1C(O)C2(CC2)C(=O)N1c1ccc2c(=O)c(C(=O)N[C@@H](C)C(F)(F)F)cn(-c3ncc(F)cc3F)c2n1` (stereo partly drawn) [Example 116, 1-(3,5-Difluoropyridin-2-yl)-7-[7-hydroxy-6-methyl-4-oxo-5-azaspiro[2.4]hept-5-yl]-4-oxo-N-[(2S)-1,1,1-trifluoropropan-2-yl]-1,4-dihydro-1,8-naphthyridine-3-carboxamide], the concentration giving a half-maximal response (EC50) came to 0.335 µM and the Emax turned out to be 96%.

`O=C(NC(c1ccc(F)cc1)C(F)(F)F)c1cn(-c2ncc(F)cc2F)c2nc(N3C[C@@H](O)CC3=O)ccc2c1=O` (mixture of isomers) [Example 11, 1-(3,5-Difluoropyridin-2-yl)-7-[(4S)-4-hydroxy-2-oxopyrrolidin-1-yl]-4-oxo-N-[2,2,2-trifluoro-1-(4-fluorophenyl)ethyl]-1,4-dihydro-1,8-naphthyridine-3-carboxamide]: a half-maximal response (EC50) required 0.037 µM and the Emax worked out at 99.5%.

For `CC1(C)C(=O)N(c2ccc3c(=O)c(C(=O)N[C@@H](C4CC4)C(F)(F)F)cn(-c4ncc(F)cc4F)c3n2)C2(CC2)C1O` (stereo partly drawn) [Example 33, N-[(1S)-1-Cyclopropyl-2,2,2-trifluoroethyl]-1-(3,5-difluoropyridin-2-yl)-7-[7-hydroxy-6,6-dimethyl-5-oxo-4-azaspiro[2.4]hept-4-yl]-4-oxo-1,4-dihydro-1,8-naphthyridine-3-carboxamide], a half-maximal effect (EC50) was put at 0.505 µM and the Emax came out at 83%.

The compound `O=C(NC(c1ccccc1Cl)C(F)(F)F)c1cn(-c2ncc(F)cc2F)c2nc(N3C[C@@H](O)[C@H](O)C3)ccc2c1=O` (single isomer, unassigned) [Example 85] displayed an EC50 of 0.085 µM and an Efficiency of 99.00%.

`CC(NC(=O)c1cn(-c2ncc(F)cc2F)c2nc(N3C[C@@H](O)CC3=O)ccc2c1=O)C(F)(F)C(F)(F)F` (single isomer, unassigned) [Example 78] registered an EC50 of 0.044 µM and an Efficiency of 91.50%.

Take `CC[C@@H](NC(=O)c1cn(-c2ncccc2Cl)c2nc(N3CC4CC4(O)C3)ccc2c1=O)C(F)(F)F` (mixture of isomers) [Example 47, 1-(3-Chloropyridin-2-yl)-7-[1-hydroxy-3-azabicyclo[3.1.0]hex-3-yl]-4-oxo-N-[(2R)-1,1,1-trifluorobutan-2-yl]-1,4-dihydro-1,8-naphthyridine-3-carboxamide]: it took 0.64 µM to reach a half-maximal effect (EC50) and the Emax turned out to be 89%.

For `CC(C)(C)[C@H](NC(=O)c1cn(-c2ncc(F)cc2F)c2nc(N3CCN(CCO)C3=O)ccc2c1=O)C(F)(F)F` [Example 124, 1-(3,5-Difluoropyridin-2-yl)-7-[3-(2-hydroxyethyl)-2-oxoimidazolidin-1-yl]-4-oxo-N-[(2S)-1,1,1-trifluoro-3,3-dimethylbutan-2-yl]-1,4-dihydro-1,8-naphthyridine-3-carboxamide], the response was half-maximal at 0.13 µM (EC50) and the Emax turned out to be 97%.

On to `CC1(NC(=O)c2cn(-c3ncc(F)cc3F)c3nc(N4CCNC4=O)ccc3c2=O)CC(F)(F)C1` [Example 171, N-(3,3-Difluoro-1-methylcyclobutyl)-1-(3,5-difluoropyridin-2-yl)-4-oxo-7-(2-oxoimidazolidin-1-yl)-1,4-dihydro-1,8-naphthyridine-3-carboxamide], for which the EC50 is 3.1 µM and the Emax stood at 90.5%.

For the compound `O=C(NC1(C(F)(F)F)CCC1)c1cn(-c2ncc(F)cc2F)c2nc(N3CCNC3=O)ccc2c1=O` [Example 150, 1-(3,5-Difluoropyridin-2-yl)-4-oxo-7-(2-oxoimidazolidin-1-yl)-N-[1-(trifluoromethyl)cyclobutyl]-1,4-dihydro-1,8-naphthyridine-3-carboxamide], a half-maximal response (EC50) required 0.375 µM and the Emax was found to be 88%.

Take `CC(NC(=O)c1cn(-c2ncc(F)cc2F)c2nc(N3C[C@@H](O)[C@H](O)C3)ccc2c1=O)(C(F)(F)F)C(F)(F)F` [Example 152, 1-(3,5-Difluoropyridin-2-yl)-7-[(3R,4R)-3,4-dihydroxypyrrolidin-1-yl]-N-(1,1,1,3,3,3-hexafluoro-2-methylpropan-2-yl)-4-oxo-1,4-dihydro-1,8-naphthyridine-3-carboxamide]: the EC50 was found to be 0.103 µM and the Emax turned out to be 99.5%.

Regarding `CCC(COC(F)(F)F)NC(=O)c1cn(-c2ncc(F)cc2F)c2nc(N3C[C@@H](C)NC3=O)ccc2c1=O` (stereo partly drawn) [Example 141, 1-(3,5-Difluoropyridin-2-yl)-7-[(4R)-4-methyl-2-oxoimidazolidin-1-yl]-4-oxo-N-[1-(trifluoromethoxy)butan-2-yl]-1,4-dihydro-1,8-naphthyridine-3-carboxamide], the concentration giving a half-maximal response (EC50) is 0.018 µM and the Emax turned out to be 95%.

For the compound `CC(NC(=O)c1cn(-c2ncc(F)cc2F)c2nc(N3CCCC[C@@H]3CO)ccc2c1=O)C(F)(F)C(F)(F)F` (single isomer, unassigned) [Example 176], the response was half-maximal at 0.028 µM (EC50) and the Emax stood at 100%.
